# Like-named read-outs stand apart in the source and are kept apart here.
# Details: ester bond, 2 steps
compound,measurement,setting,value
C[C@@H](C[C@H](Cc1ccc2c(c1)NC(=O)CCCNC(=O)[C@H](CCCCNC(=O)CCOCCOCCOCCC(=O)NCCOCCOCCC(=O)NCCOCCOCCC(=O)OC(C)(C)C)NC(=O)CCCNC(=O)[C@H](NC(=O)CCN1C(=O)C=CC1=O)[C@H](NC(=O)CCN1C(=O)C=CC1=O)C(=O)NCCCC(=O)O2)NC(=O)OC(C)(C)C)C(=O)OC(C)(C)C,"ring closure, isolated yield","from C[C@@H](C[C@H](Cc1ccc(O)c(NC(=O)CCCNC(=O)[C@H](CCCCNC(=O)CCOCCOCCOCCC(=O)NCCOCCOCCC(=O)NCCOCCOCCC(=O)OC(C)(C)C)NC(=O)CCCNC(=O)[C@@H](NC(=O)CCN2C(=O)C=CC2=O)[C@@H](NC(=O)CCN2C(=O)C=CC2=O)C(=O)NCCCC(=O)O)c1)NC(=O)OC(C)(C)C)C(=O)OC(C)(C)C, 26-membered ring",39%
CC(C)[C@@H]1NC(=O)[C@H](C)NC(=O)CCCNC(=O)[C@H](NC(=O)CN2C(=O)C=CC2=O)[C@H](NC(=O)CN2C(=O)C=CC2=O)C(=O)NCCCC(=O)Oc2ccc(C[C@@H](C[C@H](C)C(=O)OC(C)(C)C)NC(=O)OC(C)(C)C)cc2NC1=O,"ring closure, isolated yield","from (2S,4R)-tert-butyl 5-(3-((S)-2-((S)-2-aminopropanamido)-3-methylbutanamido)-4-hydroxyphenyl)-4-((tert-butoxycarbonyl)amino)-2-methylpentanoate + 4,4′-(((2R,3S)-2,3-bis(2-(2,5-dioxo-2,5-dihydro-1H-pyrrol-1-yl)acetamido)succinyl)bis(azanediyl))-dibutanoic acid?, 24-membered ring",62%
COCCOCCOCCOCCOCCOCCOCCOCCOCCOCC(=O)NCCCC[C@@H]1NC(=O)[C@@H](NC(=O)CCCN2C(=O)C=CC2=O)[C@@H](NC(=O)CCCN2C(=O)C=CC2=O)C(=O)N[C@@H](CCCCNC(=O)COCCOCCOCCOCCOCCOCCOCCOCCOCCOC)C(=O)NCCCC(=O)Nc2cc(C[C@@H](C[C@H](C)C(=O)OC(C)(C)C)NC(=O)OC(C)(C)C)ccc2OC(=O)CCCNC1=O,"ring closure, isolated yield","from (7S,10R,11S,14S)-10,11-bis(4-(2,5-dioxo-2,5-dihydro-1H-pyrrol-1-yl)butanamido)-6,9,12,15-tetraoxo-7,14-bis(31-oxo-2,5,8,11,14,17,20,23,26,29-decaoxa-32-azahexatriacontan-36-yl)-5,8,13,16-tetraazaicosane-1,20-dioic acid + (2S,4R)-tert-butyl 5-(3-amino-4-hydroxyphenyl)-4-((tert-butoxycarbonyl)amino)-2-methylpentanoate?, 24-membered ring",52%
COC(=O)[C@H](Cc1ccc2c(c1)NC(=O)CCCNC(=O)C(NC(=O)CCN1C(=O)C=CC1=O)C(NC(=O)CCN1C(=O)C=CC1=O)C(=O)NCCCC(=O)O2)NC(=O)OC(C)(C)C (stereo partly shown),"ring closure, isolated yield","from 4,4′-((2,3-bis(2-(2,5-dioxo-2,5-dihydro-1H-pyrrol-1-yl)acetamido)-succinyl)bis(azanediyl))dibutanoic acid + (S)-methyl 3-(3-amino-4-hydroxyphenyl)-2-(tert-butoxycarbonylamino)propanoate?, 18-membered ring",68%

# Source: patent publication US20230010108
